Measurements published in ChEMBL document CHEMBL3879907, “8-azabicyclo[3.2.1]octane compounds as mu opioid receptor antagonists” (2014).

target: Mu-type opioid receptor (Homo sapiens) (UniProt P35372); assay: Intrinsic activity at human mu opioid receptor expressed in CHOK1 cell membranes at 0.00001 to 20 uM after 30 mins by GTP-Eu nucleotide exchange assay relative to DAMGO; type: functional; conditions: CHO-K1
Sequence (P35372 whole entry): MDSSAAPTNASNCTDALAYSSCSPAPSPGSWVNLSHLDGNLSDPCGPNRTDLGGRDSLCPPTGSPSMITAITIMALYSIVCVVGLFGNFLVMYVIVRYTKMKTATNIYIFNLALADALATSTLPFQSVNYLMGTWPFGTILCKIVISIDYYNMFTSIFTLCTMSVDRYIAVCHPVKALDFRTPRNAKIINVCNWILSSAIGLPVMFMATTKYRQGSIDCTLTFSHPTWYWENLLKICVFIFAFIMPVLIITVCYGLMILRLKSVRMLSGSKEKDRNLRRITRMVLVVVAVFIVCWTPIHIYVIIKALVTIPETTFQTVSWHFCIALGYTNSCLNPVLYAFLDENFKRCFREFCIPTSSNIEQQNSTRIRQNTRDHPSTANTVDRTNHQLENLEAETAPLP

Structure (SMILES)	Intrinsic activity [%]
NC(=O)c1cccc([C@H]2C[C@H]3CC[C@@H](C2)N3CCN(C[C@H]2CC[C@@H](O)CC2)C(=O)[C@@H](O)CO)c1	< 40
CCC(C)NC(=O)N(CCN1[C@@H]2CC[C@H]1C[C@@H](c1cccc(O)c1)C2)CC1CCCCC1 (stereo partly drawn)	< 40
O=C(CCC1CCCC1)N(CCN1[C@@H]2CC[C@H]1C[C@@H](c1cccc(O)c1)C2)CC1CCCCC1	< 40
CC(=O)N(CCN1[C@@H]2CC[C@H]1C[C@@H](c1cccc(O)c1)C2)CC12CC3CC(CC(C3)C1)C2	< 40
NC(=O)c1cccc([C@H]2C[C@H]3CC[C@@H](C2)N3CCN(Cc2ccccc2)C(=O)[C@H](O)CO)c1	< 40
O=C(O)c1cccc([C@H]2C[C@H]3CC[C@@H](C2)N3CCN(CC2CCCCC2)C(=O)[C@@H](O)CO)c1	< 40
C[C@@H](O)[C@H](O)C(=O)N(CCN1[C@@H]2CC[C@H]1C[C@@H](c1cccc(C(N)=O)c1)C2)Cc1ccccc1	< 40
NC(=O)c1cccc([C@H]2C[C@H]3CC[C@@H](C2)N3CCN(CC23CC4CC(CC(C4)C2)C3)C(=O)CO)c1	< 40
NC(=O)c1cccc([C@H]2C[C@H]3CC[C@@H](C2)N3CCN(CC23CC4CC(CC(C4)C2)C3)C(=O)CCC(=O)O)c1	< 40
NC(=O)c1cccc([C@H]2C[C@H]3CC[C@@H](C2)N3CCN(CC23CC4CC(CC(O)(C4)C2)C3)C(=O)CO)c1	< 40
O=C(O)C(O)CC(=O)N(CCN1[C@@H]2CC[C@H]1C[C@@H](c1cccc(O)c1)C2)Cc1cccc(F)c1 (stereo partly drawn)	< 40
CS(=O)(=O)CC(=O)N(CCN1[C@@H]2CC[C@H]1C[C@@H](c1cccc(C(N)=O)c1)C2)CC1CCC(C(F)(F)F)CC1 (stereo partly drawn)	< 40
O=C(O)C1CCCCC1C(=O)N(CCN1[C@@H]2CC[C@H]1C[C@@H](c1cccc(O)c1)C2)CC1CCCCC1 (stereo partly drawn)	< 40
NC(=O)c1cccc([C@H]2C[C@H]3CC[C@@H](C2)N3CCN(CC2CCC(F)(F)CC2)C(=O)[C@@H](O)CO)c1	< 40
CC(C)(C)NCC[C@H](O)C(=O)N(CCN1[C@@H]2CC[C@H]1C[C@@H](c1cccc(C(N)=O)c1)C2)CC1CCCCC1	< 40
CC(O)C(O)C(=O)N(CCCN1[C@@H]2CC[C@H]1C[C@@H](c1cccc(C(N)=O)c1)C2)Cc1ccccc1 (stereo partly drawn)	< 40
NC(=O)c1cccc([C@H]2C[C@H]3CC[C@@H](C2)N3CCN(C[C@H]2CC[C@H](O)CC2)C(=O)[C@@H](O)CO)c1	< 40
O=C(CO)N(CCN1[C@@H]2CC[C@H]1C[C@@H](c1cccc(O)c1)C2)Cc1ccc(Cl)cc1	< 40
NC(=O)c1cccc([C@H]2C[C@H]3CC[C@@H](C2)N3CCN(CC2CCC(C(F)(F)F)CC2)C(=O)CO)c1 (stereo partly drawn)	< 40
CCC(C)NC(=O)N(CCN1[C@@H]2CC[C@H]1C[C@@H](c1cccc(C(N)=O)c1)C2)CC1CCCCC1 (stereo partly drawn)	< 40
CC(C)(C)C(=O)N(CCCN1[C@@H]2CC[C@H]1C[C@@H](c1cccc(C(N)=O)c1)C2)Cc1ccccc1	< 40
NC(=O)c1cccc([C@H]2C[C@H]3CC[C@@H](C2)N3CCN(CC23CC4CC(CC(O)(C4)C2)C3)C(=O)[C@@H](O)CO)c1	< 40
CC1CCC(CN(CCN2[C@@H]3CC[C@H]2C[C@@H](c2cccc(C(N)=O)c2)C3)C(=O)CS(C)(=O)=O)CC1 (stereo partly drawn)	< 40
O=C(N(CCN1[C@@H]2CC[C@H]1C[C@@H](c1cccc(O)c1)C2)CC1CCCCC1)C1(O)CC1	< 40
CC(O)C(=O)N(CCN1[C@@H]2CC[C@H]1C[C@@H](c1cccc(C(N)=O)c1)C2)Cc1ccccc1 (stereo partly drawn)	< 40
O=C(CO)N(CCN1[C@@H]2CC[C@H]1C[C@@H](c1cccc(O)c1)C2)CC12CC3CC(CC(C3)C1)C2	< 40
CC(=O)N(CCN1[C@@H]2CC[C@H]1C[C@@H](c1cccc(C(N)=O)c1)C2)CC12CC3CC(CC(C3)C1)C2	< 40
CN(C)CC(O)C(=O)N(CCN1[C@@H]2CC[C@H]1C[C@@H](c1cccc(C(N)=O)c1)C2)CC1CCCCC1 (stereo partly drawn)	< 40
